{
  "source": "patent US11883423B2",
  "about": "“Nucleobase analogue derivatives and their applications” (BOARD OF REGENTS, THE UNIVERSITY OF TEXAS SYSTEM, priority 2014, dated 2024)",
  "test": "Aqueous solubility by the indirect method (IPM/water partitioning, Beall et al.)",
  "format": "physicochemical",
  "description": "The aqueous solubility of Gem-DHA was determined following an indirect method according to Beall et al. with minimal modifications (Beall HD et al. International Journal of Pharmaceutics. 1993, 93, 37-47). Briefly, an excess amount of Gem-DHA was added to 100 μl of IPM in a crimp-sealed amber glass vials under nitrogen and was stirred vigorously at room temperature for 24 h, protected from light. After the stirring was stopped, the mixture was left to stand for an additional 24 h for equilibration. The content of the vial was centrifuged (14,000 rpm, 10 min) and the supernatant was transferred into a different tube. Aliquots of the saturated IPM solution were used to measure the Gem-DHA concentration before partitioning (A1) using HPLC (after proper dilution with methanol). Then, water was added to the IPM saturated solution in a volume ratio of 10:1. The two phases were mixed by vortexing for 5 min, left to stand for 15 min, then centrifuged (14,000 rpm, 15 min) to collect the IPM layer. Gem-DHA concentration in the IPM layer (A2) was again measured using HPLC after partitioning. The following equation was used to calculate the partition coefficient (KIPM/water) (Beall HD et al. International Journal of Pharmaceutics. 1993, 93, 37-47):\n[formula] where Vwater is the volume of the water phase and VIPM is the volume of IPM. The value of (Vwater/VIPM) was 10.\nThe aqueous solubility (Sw) of Gem-DHA was determined using the following equation (Id.):\n[formula] where SIPM is the solubility of Gem-DHA in IPM.\nIn order to validate the method of Beall et al. (Id.), the aqueous solubility of 4-(N)-stearoyl gemcitabine, another lipophilic gemcitabine conjugate (Sloat BR et al. Int J Pharm. 2011, 409(1-2), 278-288), which is stable in water, was measured directly (i.e., direct method) or using the indirect method reported by Beall et al. (Beall HD et al. International Journal of Pharmaceutics. 1993, 93, 37-47).",
  "data": [
    {"smiles": "CC/C=C\\C/C=C\\C/C=C\\C/C=C\\C/C=C\\C/C=C\\CCC(=O)Nc1ccn(C2OC(CO)C(O)C2(F)F)c(=O)n1", "note": "(centres unmarked) [Gem-DHA, 4-(N)-Docosahexaenoyl Difluorodeoxycytidine]", "values": [
      {"measurement": "KIPM/water (partition coefficient)", "value": "194.72 ± 111.3"},
      {"measurement": "Stability in IPM, remaining", "setting": "buffer, 48 h", "value": "> 92", "unit": "%"}
    ]}
  ]
}
